Experimental data as given in ChEMBL document CHEMBL1201862, “PubChem BioAssay data set” (2004).
Activity calls are given as the source filed them.

What was measured:
[1] = molecular target: Voltage-gated inwardly rectifying potassium channel KCNH2 (Homo sapiens, UniProt Q12809); conditions: Potency;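 further: confirmatory quantitative high-throughput screen measuring inhibition of hERG channel activity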
[2] = molecular target: T1, Alkaline phosphatase, tissue-nonspecific isozyme (Homo sapiens, UniProt P05186); assay: potency against alkaline phosphatase TNAP – biochemical, luminescent, dose response, SAR follow-up (AID 1056)
T1 sequence (P05186 whole entry): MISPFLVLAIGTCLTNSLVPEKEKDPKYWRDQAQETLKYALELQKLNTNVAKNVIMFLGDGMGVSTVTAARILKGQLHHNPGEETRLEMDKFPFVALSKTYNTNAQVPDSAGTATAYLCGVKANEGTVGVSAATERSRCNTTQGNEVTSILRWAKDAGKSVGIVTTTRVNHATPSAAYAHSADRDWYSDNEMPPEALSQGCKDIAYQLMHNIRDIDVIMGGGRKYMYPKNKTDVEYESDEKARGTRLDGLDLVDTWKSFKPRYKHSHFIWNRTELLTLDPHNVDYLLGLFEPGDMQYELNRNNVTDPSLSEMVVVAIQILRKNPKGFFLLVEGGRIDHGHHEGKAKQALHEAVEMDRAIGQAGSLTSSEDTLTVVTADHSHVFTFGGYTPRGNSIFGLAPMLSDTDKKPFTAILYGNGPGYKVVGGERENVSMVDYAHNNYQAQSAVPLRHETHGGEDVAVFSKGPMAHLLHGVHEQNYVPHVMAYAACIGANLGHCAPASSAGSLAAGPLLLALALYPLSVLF

Vero = assay: cells; assay type: functional; conditions: Chlorocebus sabaeus
[3] = Luminescence Cell-Based Dose Retest to Confirm Inhibitors of Cancer Stem Cells. [Related pubchem assays (depositor defined):AID2717, AID2721]; assay type: functional; conditions: Homo sapiens
HeLa = assay: ATP-based viability loss in HeLa cells – cell-based, CellTiter-Glo luminescence, cherry-pick samples, cytotoxicity control for MITF activator project, dose response (AID 540259); assay type: functional; conditions: Homo sapiens
Aminopeptidase N = molecular target: T2, Aminopeptidase N (Plasmodium falciparum FcB1/Columbia, UniProt O96935); assay: malaria alanyl aminopeptidase activity blockers – biochemical, fluorogenic H-Leu-NHMec substrate, 1536-well (AID 1445); design: species or system Plasmodium falciparum 3D7, 3D7
T2 sequence (O96935 whole entry): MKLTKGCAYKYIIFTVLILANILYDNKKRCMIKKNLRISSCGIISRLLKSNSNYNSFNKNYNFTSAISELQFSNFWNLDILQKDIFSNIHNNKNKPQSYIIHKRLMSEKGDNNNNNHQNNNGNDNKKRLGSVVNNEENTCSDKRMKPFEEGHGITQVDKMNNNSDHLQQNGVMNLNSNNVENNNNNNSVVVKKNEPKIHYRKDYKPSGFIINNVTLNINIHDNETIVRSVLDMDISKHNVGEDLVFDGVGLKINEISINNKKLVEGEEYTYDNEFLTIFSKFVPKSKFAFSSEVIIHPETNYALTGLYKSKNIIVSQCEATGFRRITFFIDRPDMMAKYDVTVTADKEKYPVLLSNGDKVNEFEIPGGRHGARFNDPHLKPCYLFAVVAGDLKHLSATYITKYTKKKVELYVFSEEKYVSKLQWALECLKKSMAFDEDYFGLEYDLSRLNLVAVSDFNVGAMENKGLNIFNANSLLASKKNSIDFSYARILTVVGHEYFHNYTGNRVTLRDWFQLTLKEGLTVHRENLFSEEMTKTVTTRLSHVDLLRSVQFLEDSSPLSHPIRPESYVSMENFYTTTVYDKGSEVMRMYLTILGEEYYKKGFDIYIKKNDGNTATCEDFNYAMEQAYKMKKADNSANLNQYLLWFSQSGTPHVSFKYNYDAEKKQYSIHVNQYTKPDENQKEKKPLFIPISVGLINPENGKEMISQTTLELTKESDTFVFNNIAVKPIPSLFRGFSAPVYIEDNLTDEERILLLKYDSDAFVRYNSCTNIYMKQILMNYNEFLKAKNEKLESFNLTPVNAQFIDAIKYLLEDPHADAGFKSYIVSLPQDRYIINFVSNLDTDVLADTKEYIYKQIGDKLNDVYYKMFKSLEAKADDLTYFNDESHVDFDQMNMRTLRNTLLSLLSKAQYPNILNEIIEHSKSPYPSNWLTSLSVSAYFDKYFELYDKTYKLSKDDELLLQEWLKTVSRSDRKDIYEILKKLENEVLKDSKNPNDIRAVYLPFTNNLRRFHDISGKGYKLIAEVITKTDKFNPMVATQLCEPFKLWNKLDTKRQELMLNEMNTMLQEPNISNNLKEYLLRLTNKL

[4] = molecular target: T3, Carboxy-terminal domain RNA polymerase II polypeptide A small phosphatase 1 (Homo sapiens, UniProt Q9GZU7); assay: CTDSP1 inhibitors, concentration-response, biochemical, absorbance readout, ultra-high-throughput screen actives (AID 540297); assay type: functional
T3 sequence (Q9GZU7 whole entry): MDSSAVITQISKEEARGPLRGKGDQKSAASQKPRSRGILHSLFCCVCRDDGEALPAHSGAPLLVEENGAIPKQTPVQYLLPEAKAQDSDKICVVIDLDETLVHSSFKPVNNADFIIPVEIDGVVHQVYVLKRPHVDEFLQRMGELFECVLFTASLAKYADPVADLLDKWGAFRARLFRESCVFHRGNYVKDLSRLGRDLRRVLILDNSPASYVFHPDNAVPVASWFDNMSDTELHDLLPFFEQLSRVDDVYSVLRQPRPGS

[5] = viability loss in THP-1 monocytes – THP-1 cells, cytotoxicity control for Vif-APOBEC3G degradation inhibitor project, dose response (AID 1117359); assay type: functional; conditions: THP-1
[6] = molecular target: Mitogen-activated protein kinase 10 (Homo sapiens, UniProt P53779); assay: Dose response biochemical screening assay for inhibitors of c-Jun N-Terminal Kinase 3 (JNK3). [Related pubchem assays: 746 ]
Sequence of Mitogen-activated protein kinase 10 (P53779 whole entry): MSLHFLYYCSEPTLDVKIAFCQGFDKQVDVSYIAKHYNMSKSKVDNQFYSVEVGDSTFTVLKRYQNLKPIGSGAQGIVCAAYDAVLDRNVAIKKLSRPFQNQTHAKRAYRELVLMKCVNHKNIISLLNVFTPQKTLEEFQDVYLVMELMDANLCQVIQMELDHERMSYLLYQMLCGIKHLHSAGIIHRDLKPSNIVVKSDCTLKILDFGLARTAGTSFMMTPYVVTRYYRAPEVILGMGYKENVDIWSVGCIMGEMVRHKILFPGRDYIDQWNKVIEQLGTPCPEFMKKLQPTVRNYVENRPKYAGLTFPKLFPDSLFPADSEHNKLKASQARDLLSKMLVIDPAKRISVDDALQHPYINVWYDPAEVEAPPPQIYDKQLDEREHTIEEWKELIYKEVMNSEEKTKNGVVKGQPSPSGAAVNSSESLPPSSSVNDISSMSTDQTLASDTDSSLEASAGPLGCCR

[7] = molecular target: Dual specificity tyrosine-phosphorylation-regulated kinase 1A (Rattus norvegicus, UniProt Q63470); assay type: biochemical, Homo sapiens
Cytochrome P450 2C19 = Cytochrome P450 2C19 (Homo sapiens, UniProt P33261); assay: Cytochrome panel assay with activity outcomes. Panel member name: p450-cyp2c19 Compounds with AC50 equal or less than 10 uM are considered active; assay type: functional; conditions: read-out: AC50
Sequence of Cytochrome P450 2C19 (P33261 whole entry): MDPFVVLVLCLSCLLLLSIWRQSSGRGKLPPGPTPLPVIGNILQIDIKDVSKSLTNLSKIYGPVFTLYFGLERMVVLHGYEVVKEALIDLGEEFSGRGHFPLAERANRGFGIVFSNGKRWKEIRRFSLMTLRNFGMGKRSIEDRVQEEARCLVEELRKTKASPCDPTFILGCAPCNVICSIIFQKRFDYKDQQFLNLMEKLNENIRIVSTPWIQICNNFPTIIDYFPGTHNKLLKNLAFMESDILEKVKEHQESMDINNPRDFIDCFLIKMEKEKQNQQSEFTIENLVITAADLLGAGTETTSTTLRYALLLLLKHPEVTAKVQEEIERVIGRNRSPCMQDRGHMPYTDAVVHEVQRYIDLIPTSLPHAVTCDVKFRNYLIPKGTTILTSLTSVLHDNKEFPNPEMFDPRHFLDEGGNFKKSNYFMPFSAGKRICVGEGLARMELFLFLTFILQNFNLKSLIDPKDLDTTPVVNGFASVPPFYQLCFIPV

Cytochrome P450 2D6 = Cytochrome P450 2D6 (Homo sapiens, UniProt P10635);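 further: CYP2D6 member of a cytochrome P450 panel assay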
Sequence of Cytochrome P450 2D6 (P10635 whole entry): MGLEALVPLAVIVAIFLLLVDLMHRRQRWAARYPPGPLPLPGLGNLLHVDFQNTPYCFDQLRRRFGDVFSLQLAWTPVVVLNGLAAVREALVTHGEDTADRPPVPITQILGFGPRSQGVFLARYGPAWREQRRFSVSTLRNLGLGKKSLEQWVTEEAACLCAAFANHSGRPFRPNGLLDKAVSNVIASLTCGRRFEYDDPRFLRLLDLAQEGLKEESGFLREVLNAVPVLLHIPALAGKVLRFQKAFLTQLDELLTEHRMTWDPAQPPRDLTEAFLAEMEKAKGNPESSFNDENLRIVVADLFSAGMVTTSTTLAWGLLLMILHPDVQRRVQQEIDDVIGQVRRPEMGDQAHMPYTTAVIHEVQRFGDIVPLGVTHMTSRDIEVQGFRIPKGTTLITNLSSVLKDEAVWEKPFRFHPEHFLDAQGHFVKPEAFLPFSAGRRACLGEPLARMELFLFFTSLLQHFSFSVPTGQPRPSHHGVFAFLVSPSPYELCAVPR

Cytochrome P450 1A2 = molecular target: T4, Cytochrome P450 1A2 (Homo sapiens, UniProt P05177);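 further: PubChem cytochrome P450 panel assay, CYP1A2 panel member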
T4 sequence (P05177 whole entry): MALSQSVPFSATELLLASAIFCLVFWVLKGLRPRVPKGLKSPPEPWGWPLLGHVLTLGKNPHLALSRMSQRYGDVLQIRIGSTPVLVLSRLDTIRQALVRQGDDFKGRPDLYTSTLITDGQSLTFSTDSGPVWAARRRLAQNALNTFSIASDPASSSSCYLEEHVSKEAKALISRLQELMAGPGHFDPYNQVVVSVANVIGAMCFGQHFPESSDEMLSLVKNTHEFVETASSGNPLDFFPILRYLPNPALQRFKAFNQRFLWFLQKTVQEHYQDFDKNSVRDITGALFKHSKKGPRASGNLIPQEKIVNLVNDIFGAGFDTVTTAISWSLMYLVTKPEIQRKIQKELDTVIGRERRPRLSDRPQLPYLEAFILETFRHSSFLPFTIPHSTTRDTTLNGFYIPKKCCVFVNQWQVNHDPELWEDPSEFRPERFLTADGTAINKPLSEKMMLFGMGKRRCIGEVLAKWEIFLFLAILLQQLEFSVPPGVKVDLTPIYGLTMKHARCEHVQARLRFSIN

Cytochrome P450 3A4 = Cytochrome P450 3A4 (Homo sapiens, UniProt P08684);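 further: CYP3A4 tested as one member of a cytochrome P450 panel screen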
Sequence of Cytochrome P450 3A4 (P08684 whole entry): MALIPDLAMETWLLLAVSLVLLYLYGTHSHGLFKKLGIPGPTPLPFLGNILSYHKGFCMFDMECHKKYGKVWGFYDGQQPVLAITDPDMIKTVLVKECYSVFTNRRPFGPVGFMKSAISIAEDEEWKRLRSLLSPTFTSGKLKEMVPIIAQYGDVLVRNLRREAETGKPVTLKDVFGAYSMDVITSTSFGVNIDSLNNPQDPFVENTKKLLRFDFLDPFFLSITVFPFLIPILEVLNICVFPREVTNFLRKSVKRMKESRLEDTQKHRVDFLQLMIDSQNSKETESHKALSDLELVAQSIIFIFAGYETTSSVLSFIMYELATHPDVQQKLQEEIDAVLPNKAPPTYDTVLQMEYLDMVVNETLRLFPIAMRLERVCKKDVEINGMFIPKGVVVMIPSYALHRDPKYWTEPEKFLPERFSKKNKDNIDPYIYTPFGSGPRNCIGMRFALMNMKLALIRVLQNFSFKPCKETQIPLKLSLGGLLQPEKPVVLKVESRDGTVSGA

Large T antigen = Large T antigen (Simian virus 40, UniProt P03070); assay type: functional, Betapolyomavirus macacae;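 further: Confirmatory-stage PubChem screen for compounds that inhibit SV40 T antigen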
Sequence of Large T antigen (P03070 whole entry): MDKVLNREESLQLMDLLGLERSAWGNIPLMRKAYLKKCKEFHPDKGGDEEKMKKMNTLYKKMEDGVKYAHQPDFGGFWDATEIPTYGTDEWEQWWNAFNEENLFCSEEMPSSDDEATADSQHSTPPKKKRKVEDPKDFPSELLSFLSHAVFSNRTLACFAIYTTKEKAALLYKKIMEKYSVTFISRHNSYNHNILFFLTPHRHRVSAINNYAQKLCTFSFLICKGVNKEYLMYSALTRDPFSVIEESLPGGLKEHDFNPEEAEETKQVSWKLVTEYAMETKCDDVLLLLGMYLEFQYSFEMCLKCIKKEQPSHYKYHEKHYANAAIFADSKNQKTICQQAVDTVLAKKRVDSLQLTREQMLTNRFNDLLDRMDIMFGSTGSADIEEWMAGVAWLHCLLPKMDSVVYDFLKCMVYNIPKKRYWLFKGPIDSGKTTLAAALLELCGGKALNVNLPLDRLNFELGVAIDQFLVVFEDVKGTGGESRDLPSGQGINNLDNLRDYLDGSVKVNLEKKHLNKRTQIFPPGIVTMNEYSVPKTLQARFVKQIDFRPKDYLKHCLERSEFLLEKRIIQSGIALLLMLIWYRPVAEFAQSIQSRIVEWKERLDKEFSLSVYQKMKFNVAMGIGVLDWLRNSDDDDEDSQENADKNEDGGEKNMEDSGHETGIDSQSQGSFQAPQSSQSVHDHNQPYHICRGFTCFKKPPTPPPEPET

[8] = molecular target: T5, Rac GTPase-activating protein 1 (Homo sapiens, UniProt Q9H0H5); assay: blockers of MgcRacGAP-driven Rac1 GTP hydrolysis – biochemical, ADP Hunter fluorescence, primary and confirmatory, confirmation (AID 624330); assay type: functional
T5 sequence (Q9H0H5 whole entry): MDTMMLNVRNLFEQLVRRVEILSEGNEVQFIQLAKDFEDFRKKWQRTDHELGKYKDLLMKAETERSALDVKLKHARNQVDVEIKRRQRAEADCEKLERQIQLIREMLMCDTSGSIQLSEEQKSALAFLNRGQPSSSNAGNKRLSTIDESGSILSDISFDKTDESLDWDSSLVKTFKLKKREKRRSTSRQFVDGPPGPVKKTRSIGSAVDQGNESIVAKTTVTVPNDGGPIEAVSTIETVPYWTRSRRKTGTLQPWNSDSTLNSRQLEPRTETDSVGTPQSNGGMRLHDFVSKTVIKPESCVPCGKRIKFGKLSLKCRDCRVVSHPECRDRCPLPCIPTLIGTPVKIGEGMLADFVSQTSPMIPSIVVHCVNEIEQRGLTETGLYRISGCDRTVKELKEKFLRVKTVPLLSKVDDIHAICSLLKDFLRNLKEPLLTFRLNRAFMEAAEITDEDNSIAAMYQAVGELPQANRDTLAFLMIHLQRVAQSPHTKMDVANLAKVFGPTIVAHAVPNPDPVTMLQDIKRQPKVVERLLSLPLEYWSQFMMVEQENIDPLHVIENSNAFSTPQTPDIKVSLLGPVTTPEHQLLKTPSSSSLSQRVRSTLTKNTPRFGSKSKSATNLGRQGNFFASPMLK

[9] = NIH-3T3 fibroblast cytotoxicity, dose response, cytotoxicity control, cell-based, fluorescence, Alamar Blue, secondary assay (AID 2327); assay type: functional;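 further: NIH-3T3 mouse fibroblasts cultured with fluconazole at 8 µg/mL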
[10] = fluconazole-exposed Candida albicans growth modulators – fluorescence, retest, confirmation (AID 2467); assay type: functional, cell-based
INS1 = assay: INS-1E survival protection against cytokine death – cell-based, luminescence, retest, dose response (AID 449756); assay type: functional; conditions: Rattus norvegicus;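 further: cell death triggered by IL-1 beta plus TNF-alpha plus IFN-gamma mixture; protective hits raise ATP signal compared with cytokine alone wells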
Protein Wnt-3a = Protein Wnt-3a (Mus musculus, UniProt P27467); assay: antagonism of Wnt3a pathway luciferase reporter – Wnt-LIGHT cells, luminescence, selectivity assay for Gli-SUFU antagonist project, dose response (AID 651570); assay type: functional; conditions: read-out: IC50_Mean;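 further: Wnt-LIGHT reporter cells stimulated with conditioned medium from Wnt3a-producing cells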
Sequence of Protein Wnt-3a (P27467 whole entry): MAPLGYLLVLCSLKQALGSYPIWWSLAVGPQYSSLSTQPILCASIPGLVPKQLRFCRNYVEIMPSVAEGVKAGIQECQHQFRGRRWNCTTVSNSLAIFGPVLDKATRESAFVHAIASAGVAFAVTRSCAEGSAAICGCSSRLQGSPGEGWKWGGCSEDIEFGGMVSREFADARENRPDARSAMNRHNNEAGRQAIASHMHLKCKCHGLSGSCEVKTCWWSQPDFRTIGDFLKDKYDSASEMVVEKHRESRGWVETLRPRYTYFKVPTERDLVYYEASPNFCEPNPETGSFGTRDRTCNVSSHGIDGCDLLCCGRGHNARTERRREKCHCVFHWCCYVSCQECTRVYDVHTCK

[11] = molecular target: Glyceraldehyde-3-phosphate dehydrogenase (Homo sapiens, UniProt P04406)
Sequence of Glyceraldehyde-3-phosphate dehydrogenase (P04406 whole entry): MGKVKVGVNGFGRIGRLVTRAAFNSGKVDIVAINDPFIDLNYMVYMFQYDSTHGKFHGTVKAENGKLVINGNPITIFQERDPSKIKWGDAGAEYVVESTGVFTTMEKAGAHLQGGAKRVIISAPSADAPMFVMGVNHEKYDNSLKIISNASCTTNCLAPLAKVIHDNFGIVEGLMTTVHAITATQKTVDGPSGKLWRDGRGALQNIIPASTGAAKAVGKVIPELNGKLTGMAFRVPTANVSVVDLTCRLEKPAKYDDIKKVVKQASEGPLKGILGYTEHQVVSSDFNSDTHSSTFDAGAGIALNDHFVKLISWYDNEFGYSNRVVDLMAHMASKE

Sequence of Voltage-gated inwardly rectifying potassium channel KCNH2 (Q12809 whole entry): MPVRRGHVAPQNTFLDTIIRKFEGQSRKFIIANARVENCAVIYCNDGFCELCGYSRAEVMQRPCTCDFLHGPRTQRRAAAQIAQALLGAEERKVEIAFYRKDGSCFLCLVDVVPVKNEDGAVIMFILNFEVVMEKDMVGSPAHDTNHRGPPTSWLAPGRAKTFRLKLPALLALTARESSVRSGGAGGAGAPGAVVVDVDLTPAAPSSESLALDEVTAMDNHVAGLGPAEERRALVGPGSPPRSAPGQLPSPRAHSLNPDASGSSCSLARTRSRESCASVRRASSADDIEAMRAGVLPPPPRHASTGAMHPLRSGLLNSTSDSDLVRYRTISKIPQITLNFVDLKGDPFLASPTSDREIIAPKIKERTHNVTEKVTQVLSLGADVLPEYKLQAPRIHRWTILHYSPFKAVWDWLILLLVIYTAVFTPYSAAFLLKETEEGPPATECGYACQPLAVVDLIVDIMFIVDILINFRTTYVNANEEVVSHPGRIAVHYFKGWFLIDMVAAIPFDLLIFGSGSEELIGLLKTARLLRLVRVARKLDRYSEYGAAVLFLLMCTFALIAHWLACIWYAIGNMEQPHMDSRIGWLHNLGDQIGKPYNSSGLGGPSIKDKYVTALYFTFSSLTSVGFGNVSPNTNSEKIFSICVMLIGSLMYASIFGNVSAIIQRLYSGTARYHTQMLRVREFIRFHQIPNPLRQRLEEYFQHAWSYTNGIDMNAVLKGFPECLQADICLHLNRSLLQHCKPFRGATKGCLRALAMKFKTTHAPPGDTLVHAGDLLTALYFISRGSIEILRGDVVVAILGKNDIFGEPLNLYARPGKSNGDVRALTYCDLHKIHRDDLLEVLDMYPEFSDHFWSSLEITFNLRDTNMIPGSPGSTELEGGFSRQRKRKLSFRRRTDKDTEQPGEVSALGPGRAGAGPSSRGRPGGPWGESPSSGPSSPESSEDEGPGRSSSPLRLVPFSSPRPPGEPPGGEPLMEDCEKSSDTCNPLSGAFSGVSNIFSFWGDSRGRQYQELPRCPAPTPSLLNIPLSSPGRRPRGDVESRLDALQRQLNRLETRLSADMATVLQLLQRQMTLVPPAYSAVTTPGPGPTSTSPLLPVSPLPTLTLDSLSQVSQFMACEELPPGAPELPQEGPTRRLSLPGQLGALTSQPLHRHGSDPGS

SMILES: O=C(O)/C=C/c1ccc(/C=C/C(=O)O)cc1
- AC50 [1]: 79.4 µM (inconclusive)

SMILES: Cn1c(SCC(=O)c2ccc(O)c(O)c2)nnc1-c1ccccc1
- IC50 [2]: 93.4 µM (active)

SMILES: CCCCC(=O)NC(c1ccc([N+](=O)[O-])cc1)c1c(O)ccc2ccccc12 (stereo unspecified)
- CC50 (Vero): 9.36 µM (active)

SMILES: O=C(Nc1ccc(Cl)c(Cl)c1)Nc1ccccc1O
- AC50 [3]: 5.67 µM (active)
- AC50 (HeLa): 49.7 µM (active)

SMILES: COc1ccccc1NS(=O)(=O)c1ccc(Cl)c(NC(=O)C(C)N2C(=O)c3ccccc3C2=O)c1 (stereo unspecified)
- IC50 (Aminopeptidase N): 26.9 µM (active)

SMILES: COc1ccc(NC(=O)/C(C#N)=C/c2ccc(Br)o2)cc1
- IC50 [4]: 5.43 µM (active)
- CC50 [5]: 27.4 µM (active)

SMILES: CNc1ccc(/C=C(\CCC(=O)O)c2nc3ccccc3s2)cc1[N+](=O)[O-]
- IC50 (Aminopeptidase N): 43.3 µM (active)

SMILES: CCCCN1C(=O)/C(=C/C=C2\SCCN2C)SC1=S
- AC50 (HeLa): 39.1 µM (active)

SMILES: NC(=O)c1cc(Br)cc2c3c([nH]c12)CCCC3
- IC50 [6]: 12.5 µM (not active)
- AC50 [7]: 9.32 µM (active)

SMILES: C[C@H](Cc1ccc(O)c(O)c1)[C@@H](C)Cc1ccc(O)c(O)c1 [MASOPROCOL]
- AC50 (Cytochrome P450 2C19): 15.8 µM (inconclusive)
- AC50 (Cytochrome P450 2D6): 39.8 µM (inconclusive)
- AC50 (Cytochrome P450 1A2): 25.1 µM (inconclusive)
- AC50 [1]: 35.5 µM (inconclusive)
- AC50 (Cytochrome P450 3A4): inconclusive

SMILES: O=C1OCC/C1=C\c1ccc(O)cc1
- IC50 (Large T antigen): 17.4 µM (active)
- AC50 [7]: 0.585 µM (active)
- IC50 [8]: 28.9 µM (active)

SMILES: O=C(Nc1cccc(Cl)c1)Nc1nccs1
- EC50 [9]: > 160 µM (inactive)
- EC50 [10]: 1.17 µM (active)
- AC50 [7]: 8.46 µM (active)

SMILES: c1ccc(CSCc2ccccc2)cc1
- AC50 [1]: 31.6 µM (inconclusive)

SMILES: CCN1C(=O)/C(=C2/Sc3ccccc3N2CC)S/C1=N\c1nc[nH]n1
- AC50 [7]: 1.04 µM (active)

SMILES: c1ccc(-c2noc(COc3ccc4c(c3)OCO4)n2)cc1
- AC50 (HeLa): 339 µM (active)

SMILES: CC[N+](C)(CC)CCC(c1ccccc1)C1CCCCC1 (stereo unspecified)
- AC50 (INS1): 233 µM (active)
- IC50 [4]: 4.65 µM (active)
- IC50 (Protein Wnt-3a): 39 µM (inactive)

SMILES: CN1CCN(c2ccc3ccccc3n2)CC1
- AC50 [1]: 35.5 µM (inconclusive)

SMILES: CCCCC(CC)CNCC(CC)CCCC (stereo unspecified)
- AC50 [1]: 10 µM (inconclusive)

SMILES: Cc1c(-c2ccccc2)n[nH]c1C(=O)O
- IC50 [11]: > 100 µM (not active)
- IC50 [2]: > 100 µM (inactive)

SMILES: CS(=O)(=O)Nc1ccc(-c2cc(/C=C3\SC(N)=NC3=O)cnc2O)cc1
- AC50 [7]: 0.265 µM (active)

SMILES: NNC(=O)c1cc(-c2cc(F)c(F)cc2F)[nH]n1
- IC50 [11]: > 10 µM (inconclusive)
- IC50 [2]: 0.316 µM (active)
